Test results published in US6355799B1, “Substituted benzene compounds, process for their preparation, and herbicidal and defoliant compositions containing them” (ISK Americas Incorporated, priority 1997, dated 2002).

Assays:
Type in all cases: in vivo
[1] = tested on: field corn (Zea mays L., var. Dekalb 535, CORN); test: Pre-emerge test, crop safety; details: pre-emerge, 14 days after application, scale 0-100
Method in brief: (§1)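 Rating: 0–100 visual injury, 14 DAA. Application: acetone, 187 l/ha, 15–1000 g ai/ha, flat-fan track sprayer with nozzle 40–45 cm above soil or canopy. Post-emerge runs used 0.25% v/v surfactant on 2–3 leaf plants.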

[2] = tested on: upland rice (Oryza sp., var. Tebonnet, RICE); test: Pre-emerge test, crop safety; details: pre-emerge, 14 days after application, scale 0-100
Method in brief: as §1

[3] = tested on: velvetleaf (Abutilon theophrasti, ABUTH); test: Pre-emerge test, greenhouse herbicide activity screening; details: pre-emerge, 14 days after application, scale 0-100
Method in brief: (§2)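 Compounds in acetone were track-sprayed at 15–1000 g ai/ha: pre-emergence onto soil sown the previous day, then top-watered to incorporate and later bottom-watered; post-emergence onto 2–3 leaf plants with 0.25% v/v surfactant, bottom-watered only. Ratings on a 0–100 phytotoxicity scale were taken at day 14.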

[4] = tested on: lambsquarters (Chenopodium album, CHEAL); test: as above; details: pre-emerge, 14 days after application, scale 0-100
Method in brief: as §2

[5] = tested on: barnyardgrass (Echinochloa crus-galli, ECHCG); test: as above; details: pre-emerge, 14 days after application, scale 0-100
Method in brief: as §2

[6] = tested on: ivyleaf morningglory (Ipomoea hederacea, IPOHE); test: as above; details: pre-emerge, 14 days after application, scale 0-100
Method in brief: as §2

[7] = tested on: green foxtail (Setaria viridis, SETVI); test: as above; details: pre-emerge, 14 days after application, scale 0-100
Method in brief: as §2

[8] = tested on: sicklepod (Cassia obtusifolia, CASOB); test: as above; details: pre-emerge, 14 days after application, scale 0-100
Method in brief: as §2

[9] = tested on: large crabgrass (Digitaria sanguinalis, DIGSA); test: as above; details: pre-emerge, 14 days after application, scale 0-100
Method in brief: as §2

[10] = tested on: field corn (Zea mays L., var. Dekalb 535, CORN); test: Post-emerge test, crop safety; details: post-emerge, 14 days after application, rating scale 0-100
Method in brief: as §1

[11] = tested on: upland rice (Oryza sp., var. Tebonnet, RICE); test: Post-emerge test, crop safety; details: post-emerge, 14 days after application, rating scale 0-100
Method in brief: as §1

[12] = tested on: redroot pigweed (Amaranthus retroflexus, AMARE); test: Pre-emerge test, greenhouse herbicide activity screening; details: pre-emerge, 14 days after application, scale 0-100
Method in brief: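 Plants grown in 10 cm pots of sandy loam mix received acetone-dissolved compounds through a moving flat-fan nozzle. Doses ranged from 15 to 1000 g ai/ha. Pre-emerge pots were seeded one day earlier, post-emerge pots 8–21 days earlier. Fourteen days on, each pot was graded 0–100 for damage.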

[13] = tested on: velvetleaf (Abutilon theophrasti, ABUTH); test: Post-emerge test, greenhouse herbicide activity screening; details: post-emerge, 14 days after application, rating scale 0-100
Method in brief: (§3)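 Compounds in acetone were track-sprayed at 15-1000 g ai/ha (187 l/ha) on sandy loam pots: pre-emerge one day after seeding, post-emerge at 2-3 leaf stage with 0.25% v/v non-ionic surfactant. Phytotoxicity was rated 14 days later on a 0 (no damage) to 100 (complete death) scale.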

[14] = tested on: redroot pigweed (Amaranthus retroflexus, AMARE); test: as above; details: post-emerge, 14 days after application, rating scale 0-100
Method in brief: as §3

[15] = tested on: lambsquarters (Chenopodium album, CHEAL); test: as above; details: post-emerge, 14 days after application, rating scale 0-100
Method in brief: as §3

[16] = tested on: barnyardgrass (Echinochloa crus-galli, ECHCG); test: as above; details: post-emerge, 14 days after application, rating scale 0-100
Method in brief: as §3

[17] = tested on: ivyleaf morningglory (Ipomoea hederacea, IPOHE); test: as above; details: post-emerge, 14 days after application, rating scale 0-100
Method in brief: as §3

[18] = tested on: green foxtail (Setaria viridis, SETVI); test: as above; details: post-emerge, 14 days after application, rating scale 0-100
Method in brief: as §3

[19] = tested on: johnsongrass (Sorghum halepense, SORHA); test: as above; details: post-emerge, 14 days after application, rating scale 0-100
Method in brief: as §3

[20] = tested on: sicklepod (Cassia obtusifolia, CASOB); test: as above; details: post-emerge, 14 days after application, rating scale 0-100
Method in brief: as §3

[21] = tested on: large crabgrass (Digitaria sanguinalis, DIGSA); test: as above; details: post-emerge, 14 days after application, rating scale 0-100
Method in brief: as §3

COc1c(Cl)cc(F)c(-n2c(=O)cc(C(F)(F)F)n(C)c2=O)c1NC(=O)C=Cc1ccccc1[N+](=O)[O-] [2-126]
95: CHEAL phytotoxicity rating ([15]; 250 g ai/ha)
60: phytotoxicity rating RICE (crop damage) ([2]; 250 g ai/ha) | CASOB phytotoxicity rating ([20]; 63 g ai/ha) | CASOB phytotoxicity rating ([20]; 250 g ai/ha)
40: phytotoxicity rating ECHCG ([5]; 250 g ai/ha) | phytotoxicity rating SETVI ([7]; 63 g ai/ha) | SETVI phytotoxicity rating ([18]; 250 g ai/ha)
30: phytotoxicity rating DIGSA ([9]; 63 g ai/ha) | SETVI phytotoxicity rating ([18]; 63 g ai/ha) | DIGSA phytotoxicity rating ([21]; 250 g ai/ha)
80: AMARE phytotoxicity rating ([14]; 63 g ai/ha) | CHEAL phytotoxicity rating ([15]; 63 g ai/ha) | IPOHE phytotoxicity rating ([17]; 63 g ai/ha)
90: phytotoxicity rating IPOHE ([6]; 250 g ai/ha) | phytotoxicity rating DIGSA ([9]; 250 g ai/ha) | ABUTH phytotoxicity rating ([13]; 63 g ai/ha)
100: phytotoxicity rating ABUTH ([3]; 63 g ai/ha) | phytotoxicity rating ABUTH ([3]; 250 g ai/ha) | phytotoxicity rating CHEAL ([4]; 63 g ai/ha) | phytotoxicity rating CHEAL ([4]; 250 g ai/ha) | phytotoxicity rating SETVI ([7]; 250 g ai/ha) | phytotoxicity rating AMARE ([12]; 63 g ai/ha) | phytotoxicity rating AMARE ([12]; 250 g ai/ha) | ABUTH phytotoxicity rating ([13]; 250 g ai/ha) | AMARE phytotoxicity rating ([14]; 250 g ai/ha) | IPOHE phytotoxicity rating ([17]; 250 g ai/ha)
5: phytotoxicity rating CORN (crop damage) ([1]; 250 g ai/ha)
0: phytotoxicity rating CORN (crop damage) ([1]; 63 g ai/ha) | RICE phytotoxicity rating (crop damage) ([11]; 63 g ai/ha) | ECHCG phytotoxicity rating ([16]; 63 g ai/ha) | SORHA phytotoxicity rating ([19]; 63 g ai/ha)
70: phytotoxicity rating CASOB ([8]; 250 g ai/ha)
10: phytotoxicity rating RICE (crop damage) ([2]; 63 g ai/ha) | phytotoxicity rating ECHCG ([5]; 63 g ai/ha) | phytotoxicity rating IPOHE ([6]; 63 g ai/ha) | phytotoxicity rating CASOB ([8]; 63 g ai/ha) | CORN phytotoxicity rating (crop damage) ([10]; 63 g ai/ha) | CORN phytotoxicity rating (crop damage) ([10]; 250 g ai/ha) | ECHCG phytotoxicity rating ([16]; 250 g ai/ha) | SORHA phytotoxicity rating ([19]; 250 g ai/ha)
50: RICE phytotoxicity rating (crop damage) ([11]; 250 g ai/ha)
20: DIGSA phytotoxicity rating ([21]; 63 g ai/ha)

COc1ccccc1C=CC(=O)Nc1c(OC)c(Cl)cc(F)c1-n1c(=O)cc(C(F)(F)F)n(C)c1=O [2-127]
40: phytotoxicity rating ECHCG ([5]; 250 g ai/ha) | phytotoxicity rating CASOB ([8]; 250 g ai/ha) | SETVI phytotoxicity rating ([18]; 250 g ai/ha)
100: phytotoxicity rating ABUTH ([3]; 63 g ai/ha) | phytotoxicity rating ABUTH ([3]; 250 g ai/ha) | phytotoxicity rating CHEAL ([4]; 63 g ai/ha) | phytotoxicity rating CHEAL ([4]; 250 g ai/ha) | phytotoxicity rating DIGSA ([9]; 250 g ai/ha) | phytotoxicity rating AMARE ([12]; 250 g ai/ha) | ABUTH phytotoxicity rating ([13]; 63 g ai/ha) | ABUTH phytotoxicity rating ([13]; 250 g ai/ha) | AMARE phytotoxicity rating ([14]; 63 g ai/ha) | AMARE phytotoxicity rating ([14]; 250 g ai/ha) | CHEAL phytotoxicity rating ([15]; 250 g ai/ha) | IPOHE phytotoxicity rating ([17]; 63 g ai/ha) | CASOB phytotoxicity rating ([20]; 63 g ai/ha)
50: phytotoxicity rating IPOHE ([6]; 250 g ai/ha)
20: phytotoxicity rating SETVI ([7]; 63 g ai/ha) | ECHCG phytotoxicity rating ([16]; 250 g ai/ha) | SORHA phytotoxicity rating ([19]; 63 g ai/ha) | SORHA phytotoxicity rating ([19]; 250 g ai/ha) | DIGSA phytotoxicity rating ([21]; 63 g ai/ha)
0: phytotoxicity rating CORN (crop damage) ([1]; 63 g ai/ha) | phytotoxicity rating CORN (crop damage) ([1]; 250 g ai/ha) | phytotoxicity rating RICE (crop damage) ([2]; 63 g ai/ha) | phytotoxicity rating ECHCG ([5]; 63 g ai/ha) | phytotoxicity rating IPOHE ([6]; 63 g ai/ha) | phytotoxicity rating CASOB ([8]; 63 g ai/ha)
60: CASOB phytotoxicity rating ([20]; 250 g ai/ha)
30: phytotoxicity rating DIGSA ([9]; 63 g ai/ha) | RICE phytotoxicity rating (crop damage) ([11]; 63 g ai/ha) | ECHCG phytotoxicity rating ([16]; 63 g ai/ha) | SETVI phytotoxicity rating ([18]; 63 g ai/ha) | DIGSA phytotoxicity rating ([21]; 250 g ai/ha)
80: phytotoxicity rating SETVI ([7]; 250 g ai/ha)
15: CORN phytotoxicity rating (crop damage) ([10]; 250 g ai/ha)
90: phytotoxicity rating AMARE ([12]; 63 g ai/ha)
10: phytotoxicity rating RICE (crop damage) ([2]; 250 g ai/ha) | CORN phytotoxicity rating (crop damage) ([10]; 63 g ai/ha)
70: CHEAL phytotoxicity rating ([15]; 63 g ai/ha)
95: IPOHE phytotoxicity rating ([17]; 250 g ai/ha)
35: RICE phytotoxicity rating (crop damage) ([11]; 250 g ai/ha)
